US4201843A, “Process for manufacturing tylosin derivatives” (Sanraku Ocean Co., Ltd., priority 1975, dated 1980)
Values after ≈ are worked out from the molar mass of the structure shown.

Experiments:
[1] = test system: Streptococcus pyogenes MH 771; test: minimum growth-inhibitory concentration; format: cell-based; settings: MH771, read-out: minimum growth-inhibitory concentration (MIC)
Description: (§1) The antimicrobial spectra of new tylosin derivatives of this invention are shown in Table 2 by listing the minimum growth inhibitory concentrations (MIC, mcg/ml). […] The toxicity of these compounds was tested in animals by intravenous administration, and the LD50 values in mice are more than 400 mg/kg with all compounds. In therapeutical experiments with mice manually infected by Staphilococcus aureus SMITH, the ED50 values were less than 50 mg/kg (p.o.) with all said tylosin derivatives.
(broth-dilution method)
(§2) The strains marked * in Table 2 are the drug resistant strains isolated from patients, namely, Staphilococcus aureus MS-9610 which is resistant to penicillin, tetracycline, erythromycin, leucomycin, spiramycin, josamycin and tylosin, Staphilococcus aureus MS-8710 which is resistant to penicillin, tetracycline, erythromycin, leucomycin and tylosin, and Streptococcus pyogenes MH 771 which is resistant to erythromycin, oleandomycin, leucomycin and tylosin.

solubility in solvents = format: physicochemical
Description: (§3) The physicochemical analysis and deterimations included elementary analysis, melting point, specific rotatory power, ultraviolet spectrum, infrared spectrum, magnetic nuclear resonance (NMR), C^13 -NMR, mass spectrum (chemical ionization), the release of organic acids under alkaline conditions (gas chromatographical detection), solubility in solvents, color development reaction, basicity of the compounds, appearance and crystalline form. The molecular weight was obtained as QM^+ (Quasi Molecular ion) by chemically-ionized mass spectra analysis.
(§4) (2) the crystals obtained from the solvents in (13) were used for the tests in (1)-(12), and […]

[2] = test system: Staphylococcus aureus MS 9610; test: minimum growth-inhibitory concentration; format: cell-based; settings: MS9610; Staphylococcus aureus MS 9610, drug resistant strain
Description: as §1, §2

[3] = test system: Staphylococcus aureus MS 8710; test: minimum growth-inhibitory concentration; format: cell-based; settings: MS8710; Staphylococcus aureus MS 8710, drug resistant strain
Description: as §1, §2

drug resistant strains = test: antimicrobial activity against drug resistant strains; format: cell-based; settings: strains marked * in Table 2
Description: One of the particular advantages of the said tylosin derivatives over known macrolide antibiotics is their distinct antimicrobial activity against drug resistant bacteria.
as §2

[4] = test system: Candida tropicalis IAM 4924; test: minimum growth-inhibitory concentration; format: cell-based; settings: IAM4924
Description: as §1

[5] = test system: Corynebacterium bovis 1810; test: minimum growth-inhibitory concentration; format: cell-based
Description: as §1

[6] = test system: Escherichia coli (National Institute of Health); test: minimum growth-inhibitory concentration; format: cell-based
Description: as §1

[7] = test system: Bacillus subtilis ATCC 6633; test: minimum growth-inhibitory concentration; format: cell-based; settings: ATCC6633
Description: as §1

[8] = test system: Bacillus cereus ATCC 9634; test: minimum growth-inhibitory concentration; format: cell-based; settings: ATCC9634
Description: as §1

[9] = test system: Staphylococcus aureus FAD209P; test: minimum growth-inhibitory concentration; format: cell-based; settings: read-out: minimum growth-inhibitory concentration (MIC)
Description: as §1

[10] = test system: Pseudomonas fluorescens NIHJB 254; test: minimum growth-inhibitory concentration; format: cell-based; settings: NIHJB254
Description: as §1

[11] = test system: Mycobacterium smegmatis ATCC 607; test: minimum growth-inhibitory concentration; format: cell-based; settings: Mycolicibacterium smegmatis, ATCC607
Description: as §1

[12] = test system: Candida albicans IAM 4905; test: minimum growth-inhibitory concentration; format: cell-based; settings: IAM4905
Description: as §1

[13] = test system: Staphylococcus aureus SMITH; test: minimum growth-inhibitory concentration; format: cell-based
Description: as §1

Sarcina lutea ATCC 9341 = test: minimum growth-inhibitory concentration; format: cell-based; settings: Micrococcus luteus, ATCC9341
Description: as §1

[14] = test system: Proteus morganii (The Institute for Infectious Diseases); test: minimum growth-inhibitory concentration; format: cell-based; settings: Morganella morganii
Description: as §1

[15] = test system: Bacillus megaterium NRRL B-938; test: minimum growth-inhibitory concentration; format: cell-based; settings: Priestia megaterium, NRRLB938
Description: as §1

Micrococcus flavus I = test: minimum growth-inhibitory concentration; format: cell-based
Description: as §1

[16] = basicity of the compounds (alkalinity); format: physicochemical
Description: as §3, §4

[17] = design: species or system mice; settings: mouse, in vivo, po, 100 mg/kg
Description: Another phase of advantages of the said tylosin derivatives is their high blood levels in animals. When each of these compounds is orally administered to mice in a dose of 100 mg/kg, their concentrations in blood were measured to be 5-20 mcg/ml, a substantially high value compared to that of tylosin (<1 mcg/ml). […] Their concentrations in blood one hour after administration reached up to 15-20 mcg/ml.

[18] = electrometric determination in dimethyl formamide-H2O=2:1 by volume; Japanese Patent (Kokoku) Showa No. 36-22649; cited from earlier work

In the case of `CCCC(=O)OC1C(C)OC(OC2C(C)OC(OC3C(CC=O)CC(C)C(=O)C=CC(C)=CC(COC4OC(C)C(O)C(OC)C4OC)C(CC)OC(=O)CC(OC(=O)CC)C3C)C(O)C2N(C)C)CC1(C)O` (stereo not shown) [3-propionyl-4"-n-butyryltylosin], the MIC [1] is reported as 15.6 µg/mL (≈ 15 µM), the “solubility in acidic water” value (solubility in solvents; acidic water) is reported as “soluble” and the “solubility in alkaline water” value (solubility in solvents; alkaline water) is reported as “hardly soluble”. The “solubility in lower alcohols, ketones, ethers, esters, benzene and toluene” value (solubility in solvents; e.g. ethanol, acetone, ethyl ether, ethyl acetate, benzene, toluene) was “soluble”, the “solubility in n-hexane and petroleum ether” value (solubility in solvents; n-hexane and petroleum ether) was “hardly soluble” and the “solubility in neutral water” value (solubility in solvents; neutral water) was “slightly soluble”. For the same molecule, the MIC [2] was 250 µg/mL (≈ 240 µM), the MIC [3] was 31.3 µg/mL (≈ 30 µM) and the “antimicrobial activity against a wide range of drug resistant strains” value (drug resistant strains) was “particularly strong antimicrobial activity”. The MIC [4] was > 250 µg/mL, the MIC [5] was 0.5 µg/mL (≈ 0.48 µM) and the MIC [6] was 250 µg/mL (≈ 240 µM). For the same molecule, the MIC [7] was 0.49 µg/mL (≈ 0.47 µM), the MIC [8] was 1.95 µg/mL (≈ 1.87 µM) and the MIC [9] was 0.98 µg/mL (≈ 0.94 µM). For the same molecule, the MIC [10] was > 250 µg/mL, the MIC [11] was 3.91 µg/mL (≈ 3.75 µM) and the MIC [12] was > 250 µg/mL. For the same molecule, the MIC [13] was 0.25 µg/mL (≈ 0.24 µM), the MIC (Sarcina lutea ATCC 9341) was < 0.12 µg/mL and the MIC [14] was > 250 µg/mL. The MIC [15] was 0.49 µg/mL (≈ 0.47 µM), the MIC (Micrococcus flavus I) was 0.25 µg/mL (≈ 0.24 µM) and the alkalinity [16] was “alkaline compounds”.

In the case of `CC[C@H]1OC(=O)C[C@@H](O)[C@H](C)[C@@H](O[C@@H]2O[C@H](C)[C@@H](O[C@H]3C[C@@](C)(O)[C@@H](O)[C@H](C)O3)[C@H](N(C)C)[C@H]2O)[C@@H](CC=O)C[C@@H](C)C(=O)/C=C/C(C)=C/[C@@H]1CO[C@@H]1O[C@H](C)[C@@H](O)[C@@H](OC)[C@H]1OC` [tylosin], the MIC [1] is reported as 250 µg/mL (≈ 273 µM), the concentration in blood [17] is reported as < 1000 ng/mL and the MIC [2] is reported as > 250 µg/mL. The MIC [3] was > 250 µg/mL, the MIC [4] was > 250 µg/mL and the MIC [5] was 0.5 µg/mL (≈ 0.546 µM). It also gave an MIC [6] of 250 µg/mL (≈ 273 µM), an MIC [7] of 0.49 µg/mL (≈ 0.535 µM) and an MIC [8] of 0.49 µg/mL (≈ 0.535 µM). The MIC [9] was 0.49 µg/mL (≈ 0.535 µM), the MIC [10] was > 250 µg/mL and the MIC [11] was 7.81 µg/mL (≈ 8.53 µM). For the same molecule, the MIC [12] was > 250 µg/mL, the MIC [13] was 0.25 µg/mL (≈ 0.273 µM) and the MIC (Sarcina lutea ATCC 9341) was 0.12 µg/mL (≈ 0.131 µM). The MIC [14] was > 250 µg/mL, the MIC [15] was 0.25 µg/mL (≈ 0.273 µM) and the MIC (Micrococcus flavus I) was 0.12 µg/mL (≈ 0.131 µM).

In the case of tylosin acetyl ester, the pk value [18] is listed as “about 5.1”.
